Source: ChEMBL document CHEMBL1150286, “Discovery and optimization of triazolopyridazines as potent and selective inhibitors of the c-Met kinase” (J Med Chem, 2008)
Values belong to the molecule of their own block, whether it stands above or below them.

Tests used:
[1] = Clearance in rat liver microsomes; type: ADME, Microsome
[2] = Clearance in mouse liver microsomes; type: ADME, Microsome
[3] = Clearance in Sprague-Dawley rat at 0.5 mg/kg, iv; type: ADME, organism-based; parameters: dose 0.5 mg/kg, route intravenous; details: in vivo
[4] = Volume of distribution in steady state in Sprague-Dawley rat at 0.5 mg/kg, iv; type: ADME, organism-based; parameters: dose 0.5 mg/kg, route intravenous; details: in vivo, read-out: Vdss
[5] = Half life in Sprague-Dawley rat at 0.5 mg/kg, iv; type: ADME, organism-based; parameters: dose 0.5 mg/kg, route intravenous; details: in vivo
[6] = AUC (0 to infinity) in Sprague-Dawley rat at 2 mg/kg, po; type: ADME, organism-based; parameters: time infinity, dose 2 mg/kg, route oral; details: plasma
[7] = Bioavailability in Sprague-Dawley rat at 2 mg/kg, po; type: ADME, organism-based; details: in vivo
[8] = target: T1, Hepatocyte growth factor receptor (Homo sapiens, UniProt P08581)
Description: Inhibition of HGF-mediated c-Met phosphorylation in serum-starved human PC2 cells

[9] = Clearance in Sprague-Dawley rat at 0.25 mg/kg, iv; type: ADME, organism-based; parameters: dose 0.25 mg/kg, route intravenous; details: in vivo
[10] = Volume of distribution in steady state in Sprague-Dawley rat at 0.25 mg/kg, iv; type: ADME, organism-based; parameters: dose 0.25 mg/kg, route intravenous; details: in vivo, read-out: Vdss
[11] = Half life in Sprague-Dawley rat at 0.25 mg/kg, iv; type: ADME, organism-based; parameters: dose 0.25 mg/kg, route intravenous; details: in vivo
[12] = Drug level in orally dosed mouse plasma after 6 hrs; type: ADME, organism-based; details: po
Mus musculus = test: Inhibition of HGF-mediated c-Met phosphorylation in orally dosed mouse liver; type: functional; details: po
[13] = target: Mast/stem cell growth factor receptor Kit (Homo sapiens) (UniProt P10721); test: Inhibition of cKit
[14] = target: Tyrosine-protein kinase ABL1 (Homo sapiens) (UniProt P00519); test: Inhibition of Abl
[15] = target: Tyrosine-protein kinase JAK2 (Homo sapiens) (UniProt O60674); test: Inhibition of Jak2
[16] = target: Ribosomal protein S6 kinase alpha-5 (Homo sapiens) (UniProt O75582); test: Inhibition of Msk1
[17] = Inhibition of PKAalpha
[18] = target: Mitogen-activated protein kinase 3 (Homo sapiens) (UniProt P27361); test: Inhibition of Erk1
[19] = target: RAC-alpha serine/threonine-protein kinase (Homo sapiens) (UniProt P31749); test: Inhibition of PKBalpha
[20] = target: T1, Hepatocyte growth factor receptor; test: Inhibition of c-Met by HTRF assay
[21] = target: Vascular endothelial growth factor receptor 2 (Homo sapiens) (UniProt P35968); test: Inhibition of KDR
[22] = target: Tyrosine-protein kinase Lck (Homo sapiens) (UniProt P06239); test: Inhibition of Lck
[23] = target: Proto-oncogene tyrosine-protein kinase Src (Homo sapiens) (UniProt P12931); test: Inhibition of Src
[24] = target: Insulin-like growth factor 1 receptor (Homo sapiens) (UniProt P08069); test: Inhibition of IGF1R
[25] = target: Tyrosine-protein kinase BTK (Homo sapiens) (UniProt Q06187); test: Inhibition of Btk
[26] = target: Angiopoietin-1 receptor (Homo sapiens) (UniProt Q02763); test: Inhibition of Tie2
[27] = Inhibition of p38
[28] = target: Mitogen-activated protein kinase 9 (Homo sapiens) (UniProt P45984); test: Inhibition of JNK2
[29] = target: Cyclin-dependent kinase 5 (Homo sapiens) (UniProt Q00535); test: Inhibition of CDK5
[30] = target: Aurora kinase A (Homo sapiens) (UniProt O14965); test: Inhibition of Aur2

microsomal CLint [1]: 131 µL/min/mg
microsomal CLint [2]: 122 µL/min/mg
clearance [3]: 6.17 mL/min/kg
Vd [4]: 0.38 L/kg
half-life [5]: 60 min
AUC(0-inf) [6]: 2520 ng·h/mL
bioavailability [7]: 43%
IC50 [8]: 46 nM
SMILES: COc1ccc2c(OCc3nnc4ccc(-c5ccccc5)nn34)ccnc2c1 [AMG-208]

microsomal CLint [1]: 420 µL/min/mg
microsomal CLint [2]: 173 µL/min/mg
clearance [9]: 4 mL/min/kg
Vd [10]: 0.35 L/kg
half-life [11]: 155 min
AUC(0-inf) [6]: 5100 ng·h/mL
bioavailability [7]: 59%
SMILES: COc1ccc2c(OCc3nnc4ccc(-c5cc(C)ns5)nn34)ccnc2c1

concentration at 6 h [12]: 6.7 µM
Activity [13]: > 10 µM
Activity [14]: > 10 µM
Activity [15]: > 10 µM
Activity [16]: > 10 µM
Activity [17]: > 10 µM
Activity [18]: > 10 µM
Activity [19]: > 10 µM
IC50 [20]: 4 nM
microsomal CLint [1]: 190 µL/min/mg
microsomal CLint [2]: 156 µL/min/mg
clearance [9]: 0.967 mL/min/kg
Vd [10]: 0.152 L/kg
half-life [11]: 210 min
AUC(0-inf) [6]: 7840 ng·h/mL
bioavailability [7]: 22%
Activity [21]: > 10 µM
Activity [22]: > 10 µM
Activity [23]: > 10 µM
Activity [24]: > 10 µM
Activity [25]: > 10 µM
Activity [26]: > 10 µM
Activity [27]: > 10 µM
Activity [28]: > 10 µM
Activity [29]: > 10 µM
IC50 [8]: 7 nM
Activity [30]: > 10 µM
SMILES: COc1ccc2c(OCc3nnc4ccc(-c5cc(F)c(F)c(F)c5)nn34)ccnc2c1
ED90 (Mus musculus): 30 mg/kg
